Data: patent publication US20240158446A1, “CYCLIC COMPOUND HAVING SELECTIVE INHIBITORY ACTION ON KRAS OVER HRAS AND NRAS” (CHUGAI SEIYAKU KABUSHIKI KAISHA, priority 2021, published 2024)
Like-named read-outs stand apart in the source and are kept apart here. *1 amine or outer side, *2 acyl side, *3 side chain or, on linkers, in order; H or OH if unused. Where a SMILES comes first, the peptide text is derived from it. Bridges are numbered along the chain shown (N, C = ends). [ ]: non-standard residue; d: D form. The star is where a group is joined. hPhe(3,5-F2-4-CF3) = N[C@@H](CCc1cc(F)c(C(F)(F)F)c(F)c1)C(=O)O; hPhe(3-Cl-4-CF3) = N[C@@H](CCc1ccc(C(F)(F)F)c(Cl)c1)C(=O)O; NPrPhe(4-CF3) = CCCN[C@@H](Cc1ccc(C(F)(F)F)cc1)C(=O)O; X28 = COCCCN([C@@H](Cc1ccc(C)cc1)C(=O)[*:2])[*:1]; X35 = COCCN([C@@H](Cc1ccc(C)cc1)C(=O)[*:2])[*:1]; NMeGly(cPent) = CN[C@H](C(=O)O)C1CCCC1; Pro(4,4-F2) = O=C(O)[C@@H]1CC(F)(F)CN1; Nva(3-Et) = CCC(CC)[C@H](N)C(=O)O; NMeD = CN[C@@H](CC(=O)O)C(=O)O; NMeL = CN[C@@H](CC(C)C)C(=O)O; Morpholide = C1CN(*)CCO1; NMeA = CN[C@@H](C)C(=O)O; Ac5c = NC1(C(=O)O)CCCC1; Aze = O=C(O)[C@@H]1CCN1; Ac4c = NC1(C(=O)O)CCC1; Sar = CNCC(=O)O

Assays:
[1] = target: GDP-bound HRAS wild-type protein (Homo sapiens, UniProt P01112); assay: Binding to HRAS by surface plasmon resonance (SPR), Single Cycle Kinetics; settings: SPR, GDP-bound HRAS wild-type protein vs GDP-bound KRAS wild-type protein
[2] = target: GDP-bound NRAS wild-type protein (Homo sapiens, UniProt P01111); assay: Binding to NRAS by surface plasmon resonance (SPR), Single Cycle Kinetics; settings: SPR, GDP-bound NRAS wild-type protein vs GDP-bound KRAS wild-type protein
[3] = target: GDP-bound KRAS wild-type protein (Homo sapiens, UniProt P01116); assay: Binding to KRAS by surface plasmon resonance (SPR), Single Cycle Kinetics; settings: GDP-bound KRAS wild-type protein, read-out: KRAS KD
[4] = SPR Single Cycle Kinetics, 1:1 binding model

Sequence of GDP-bound KRAS wild-type protein (P01116 whole entry): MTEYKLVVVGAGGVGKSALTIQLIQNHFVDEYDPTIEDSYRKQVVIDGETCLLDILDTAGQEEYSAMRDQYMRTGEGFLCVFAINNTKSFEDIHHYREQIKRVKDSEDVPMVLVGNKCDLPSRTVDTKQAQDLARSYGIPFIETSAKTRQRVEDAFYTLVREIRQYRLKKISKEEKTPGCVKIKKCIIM
Sequence of GDP-bound HRAS wild-type protein (P01112 whole entry): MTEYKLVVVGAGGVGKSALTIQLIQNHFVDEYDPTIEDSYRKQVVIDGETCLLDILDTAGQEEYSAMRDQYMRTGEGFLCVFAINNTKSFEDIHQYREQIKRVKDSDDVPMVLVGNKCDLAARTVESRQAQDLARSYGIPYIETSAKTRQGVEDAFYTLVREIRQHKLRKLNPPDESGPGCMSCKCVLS
Sequence of GDP-bound NRAS wild-type protein (P01111 whole entry): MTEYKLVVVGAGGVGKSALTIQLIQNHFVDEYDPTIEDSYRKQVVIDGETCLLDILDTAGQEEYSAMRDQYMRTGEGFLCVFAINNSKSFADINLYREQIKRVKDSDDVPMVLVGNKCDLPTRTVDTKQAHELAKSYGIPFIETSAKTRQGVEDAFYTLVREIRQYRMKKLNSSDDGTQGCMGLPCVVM

Row | Kd ([3]; SPR, Single Cycle Kinetics) [nM] | Kd [3, 4] [nM] | SMILES | HRAS/KRAS (ratio of KD value for HRAS to KD value for KRAS) [1] | NRAS/KRAS (ratio of KD value for NRAS to KD value for KRAS) [2] | also measured
1 | 0.087 | – | CCC[C@H]1C(=O)N[C@@H](C2CCCC2)C(=O)N(C)CC(=O)N(C)[C@H]2C/C=C\CCN(C2=O)[C@@H](Cc2ccc(C)cc2)C(=O)N(C)CC(=O)N[C@@H](CCc2cc(F)c(C(F)(F)F)c(F)c2)C(=O)N2C[C@H](OCC)C[C@H]2C(=O)NC2(CC(C)(C)C2)C(=O)N(C)[C@@H](CC(C)(C)C)C(=O)N(C)[C@H](C(=O)N(C)C)CC(=O)N1C [PP2989] | A (a compound having 10 or more and less than 20 is denoted as A) | AA (a compound having 20 or more is denoted as AA) | –
2 | – | 0.046 | CCCN1C(=O)[C@@H]2CCN2C(=O)CN(C)C(=O)[C@H]([C@@H](C)CC)NC(=O)[C@H](CC(C)C)N(C)C(=O)C[C@@H](C(=O)N(C)C)N(C)C(=O)[C@H](C2CCCC2)N(C)C(=O)C2(CCCC2)NC(=O)[C@@H]2CCCN2C(=O)[C@H](CCc2ccc(C(F)(F)F)c(Cl)c2)NC(=O)CN(C)C(=O)[C@@H]1Cc1ccc(C(F)(F)F)cc1 [PP0440] ([NMeL]I[Sar][Aze][NPrPhe(4-CF3)][Sar][hPhe(3-Cl-4-CF3)]P[Ac5c][NMeGly(cPent)][NMeD]-NMe2; lactam N-11) | – | – | HRAS/KRAS (ratio of KD value with respect to HRAS to KD value with respect to KRAS) [1]: B (a compound having 3 or more and less than 10 is denoted as B); NRAS/KRAS (ratio of KD value with respect to NRAS to KD value with respect to KRAS) [2]: C (A compound having a KD ratio of 0.1 or more and less than 3 is denoted as C)
3 | 0.093 | – | CCO[C@@H]1C[C@H]2C(=O)NC3(CCC3)C(=O)N(C)[C@@H](C3CCCC3)C(=O)N(C)[C@H](C(=O)N(C)C)CC(=O)N(C)[C@@H](CC)C(=O)N[C@@H]([C@@H](C)CC)C(=O)N(C)CC(=O)N(C)[C@H]3CCCCN(C3=O)[C@@H](Cc3ccc(C(F)(F)F)cc3)C(=O)N(C)CC(=O)N[C@@H](CCc3ccc4sccc4c3)C(=O)N2C1 [PP0887] | C (A compound having a KD ratio of 0.1 or more and less than 3 is denoted as C) | C (A compound having a KD ratio of 0.1 or more and less than 3 is denoted as C) | –
4 | 0.2 | – | CCO[C@@H]1C[C@H]2C(=O)NC3(CC(C)(C)C3)C(=O)N(C)[C@@H](C(CC)CC)C(=O)N(C)[C@H](C(=O)N(C)C)CC(=O)N(C)[C@@H](CC(C)C)C(=O)N[C@@H]([C@@H](C)CC)C(=O)N(C)CC(=O)N(C)[C@H]3C/C=C\CCN(C3=O)[C@@H](Cc3ccc(C(F)(F)F)cc3)C(=O)N(C)CC(=O)N[C@@H](CCc3ccc(C(F)(F)F)c(OC)c3)C(=O)N2C1 [PP2161] | A (a compound having 10 or more and less than 20 is denoted as A) | AA (a compound having 20 or more is denoted as AA) | –
5 | – | 0.15 | CC[C@H](C)[C@@H]1NC(=O)[C@H](CC(C)C)N(C)C(=O)C[C@@H](C(=O)N2CCOCC2)N(C)C(=O)[C@H](C2CCCC2)N(C)C(=O)C2(CCCC2)NC(=O)[C@@H]2CCCN2C(=O)[C@H](CCc2ccc(C(F)(F)F)c(Cl)c2)NC(=O)CN(C)C(=O)[C@H](Cc2ccc(C)cc2)N(CCOC)C(=O)[C@@H]2CCN2C(=O)[C@H](C)N(C)C1=O [PP0092] ([NMeL]I[NMeA][Aze][X35][Sar][hPhe(3-Cl-4-CF3)]P[Ac5c][NMeGly(cPent)][NMeD]-Morpholide; lactam N-11) | C (A compound having a KD ratio of 0.1 or more and less than 3 is denoted as C) | C (A compound having a KD ratio of 0.1 or more and less than 3 is denoted as C) | –
6 | – | 0.056 | CCCN1C(=O)[C@@H]2CCN2C(=O)CN(C)C(=O)[C@H]([C@@H](C)CC)NC(=O)[C@H](CC(C)C)N(C)C(=O)C[C@@H](C(=O)N2CCOCC2)N(C)C(=O)[C@H](C2CCCC2)N(C)C(=O)C2(CCC2)NC(=O)[C@@H]2CC(F)(F)CN2C(=O)[C@H](CCc2ccc(C(F)(F)F)c(Cl)c2)NC(=O)CN(C)C(=O)[C@@H]1Cc1ccc(C(F)(F)F)cc1 [PP0409] ([NMeL]I[Sar][Aze][NPrPhe(4-CF3)][Sar][hPhe(3-Cl-4-CF3)][Pro(4,4-F2)][Ac4c][NMeGly(cPent)][NMeD]-Morpholide; lactam N-11) | – | – | HRAS/KRAS (ratio of KD value with respect to HRAS to KD value with respect to KRAS) [1]: C (A compound having a KD ratio of 0.1 or more and less than 3 is denoted as C); NRAS/KRAS (ratio of KD value with respect to NRAS to KD value with respect to KRAS) [2]: C (A compound having a KD ratio of 0.1 or more and less than 3 is denoted as C)
7 | – | 0.36 | CCCN1C(=O)CN(C)C(=O)CN(C)C(=O)[C@H](C(CC)CC)NC(=O)[C@H](CC(C)C)N(C)C(=O)C[C@@H](C(=O)N(C)C)N(C)C(=O)[C@H](C2CCCC2)N(C)C(=O)C2(CCCC2)NC(=O)[C@@H]2CCCN2C(=O)[C@H](CCc2cc(F)c(C(F)(F)F)c(F)c2)NC(=O)CN(C)C(=O)[C@@H]1Cc1ccc(C(F)(F)F)cc1 [PP0747] ([NMeL][Nva(3-Et)][Sar][Sar][NPrPhe(4-CF3)][Sar][hPhe(3,5-F2-4-CF3)]P[Ac5c][NMeGly(cPent)][NMeD]-NMe2; lactam N-11) | – | – | HRAS/KRAS (ratio of KD value with respect to HRAS to KD value with respect to KRAS) [1]: C (A compound having a KD ratio of 0.1 or more and less than 3 is denoted as C); NRAS/KRAS (ratio of KD value with respect to NRAS to KD value with respect to KRAS) [2]: B (a compound having 3 or more and less than 10 is denoted as B)

Continued, compound first:

Row | SMILES | Kd ([3]; SPR, Single Cycle Kinetics) [nM] | Kd [3, 4] [nM] | HRAS/KRAS (ratio of KD value for HRAS to KD value for KRAS) [1] | NRAS/KRAS (ratio of KD value for NRAS to KD value for KRAS) [2] | also measured
8 | CCO[C@@H]1C[C@H]2C(=O)NC3(CCC3)C(=O)N(C)[C@@H](C3CCCC3)C(=O)N(C)[C@H](C(=O)N(C)C)CC(=O)N(C)[C@@H](CC3CCCC3)C(=O)N[C@@H]([C@@H](C)CC)C(=O)N(C)CC(=O)N(C)[C@H]3C/C=C\CCN(C3=O)[C@@H](Cc3ccc(F)cc3)C(=O)N(C)CC(=O)N[C@@H](CCc3cc(F)c(C(F)(F)F)c(F)c3)C(=O)N2C1 [PP1531, (2S,8S,12R,14S,20S,23S,27S,30S,36S,38Z)-20-cyclopentyl-27-(cyclopentylmethyl)-8-[2-[3,5-difluoro-4-(trifluoromethyl)phenyl]ethyl]-12-ethoxy-2-[(4-fluorophenyl)methyl]-N,N,4,19,22,26,32,35-octamethyl-30-[(1S)-1-methylpropyl]-3,6,9,15,18,21,25,28,31,34,42-undecaoxo-spiro[1,4,7,10,16,19,22,26,29,32,35-undecazatricyclo[34.5.1.0^10,14]dotetracont-38-ene-17,1′-cyclobutane]-23-carboxamide] | – | – | – | – | HRAS/KRAS (ratio of KD value for HRAS to KD value for KRAS) ([1]; KD ratio class): B (a compound having 3 or more and less than 10 is denoted as B); NRAS/KRAS (ratio of KD value for NRAS to KD value for KRAS) ([2]; KD ratio class): A (a compound having 10 or more and less than 20 is denoted as A); Kd ([3]; SPR, Single Cycle Kinetics, 1:1 binding model): 0.12 nM
9 | CCO[C@@H]1C[C@H]2C(=O)NC3(CC(C)(C)C3)C(=O)N(C)[C@@H](C(CC)CC)C(=O)N(C)[C@H](C(=O)N3CCCC3)CC(=O)N(C)[C@@H](C)C(=O)N[C@@H]([C@@H](C)CC)C(=O)N(C)CC(=O)N(C)[C@H]3C/C=C\CCN(C3=O)[C@@H](Cc3ccc(C(F)(F)F)cc3)C(=O)N(C)CC(=O)N[C@@H](CCc3ccc(Cl)c(Cl)c3)C(=O)N2C1 [PP2178] | 0.49 | – | A (a compound having 10 or more and less than 20 is denoted as A) | AA (a compound having 20 or more is denoted as AA) | –
10 | CC[C@H](C)[C@@H]1NC(=O)[C@H](CC(C)C)N(C)C(=O)C[C@@H](C(=O)N2CCOCC2)N(C)C(=O)[C@H](C2CCCC2)N(C)C(=O)C2(CCCC2)NC(=O)[C@@H]2CCCN2C(=O)[C@H](CCc2ccc(C(F)(F)F)c(Cl)c2)NC(=O)CN(C)C(=O)[C@H](Cc2ccc(C)cc2)N(CCCOC)C(=O)[C@@H]2CCN2C(=O)[C@H](C)N(C)C1=O [PP0093] ([NMeL]I[NMeA][Aze][X28][Sar][hPhe(3-Cl-4-CF3)]P[Ac5c][NMeGly(cPent)][NMeD]-Morpholide; lactam N-11) | – | 0.076 | B (a compound having 3 or more and less than 10 is denoted as B) | C (A compound having a KD ratio of 0.1 or more and less than 3 is denoted as C) | –
11 | CCO[C@@H]1C[C@H]2C(=O)NC3(CC(C)(C)C3)C(=O)N(C)[C@@H](C(CC)CC)C(=O)N(C)[C@H](C(=O)N(C)C)CC(=O)N(C)[C@H]3CCCCCc4ccc(cc4)C[C@@H](C(=O)N(C)CC(=O)N[C@@H](CCc4ccc(C(F)(F)F)c(OC)c4)C(=O)N2C1)N1CC/C=C\C[C@@H](C1=O)N(C)C(=O)CN(C)C(=O)[C@H]([C@@H](C)CC)NC3=O [PP3035] | 0.092 | – | A (a compound having 10 or more and less than 20 is denoted as A) | AA (a compound having 20 or more is denoted as AA) | –
12 | CCO[C@@H]1C[C@H]2C(=O)NC3(CC(C)(C)C3)C(=O)N(C)[C@@H](C(CC)CC)C(=O)N(C)[C@H](C(=O)N3CCCC3)CC(=O)N(C)[C@@H](CC)C(=O)N[C@@H]([C@@H](C)CC)C(=O)N(C)CC(=O)N(C)[C@H]3C/C=C\CCN(C3=O)[C@@H](Cc3ccc(C)cc3)C(=O)N(C)CC(=O)N[C@@H](CCc3ccc(C(F)(F)F)c(OC)c3)C(=O)N2C1 [PP2171] | 0.75 | – | A (a compound having 10 or more and less than 20 is denoted as A) | A (a compound having 10 or more and less than 20 is denoted as A) | –
